Test results published in patent US20230227442A1, “HETEROALKYL DIHYDROQUINOLINE SULFONAMIDE COMPOUNDS” (AMGEN INC., priority 2020, published 2023).

Key:
Human Nav1.7 = biological target: T1, Human Nav1.7 (Homo sapiens, UniProt Q15858); assay: Ionworks Barracuda (IWB) automated patch clamp assay; assay type: cell-based; settings: population patch clamp, HEK cells, 4 min compound incubation at -20 mV; read-out: hNaV1.7 IWB-U IC50
T1 construct: expressed in transfected cells; host or cells: Spiking HEK cells (without Kir2.1 transfection)
T1 sequence (Q15858 whole entry): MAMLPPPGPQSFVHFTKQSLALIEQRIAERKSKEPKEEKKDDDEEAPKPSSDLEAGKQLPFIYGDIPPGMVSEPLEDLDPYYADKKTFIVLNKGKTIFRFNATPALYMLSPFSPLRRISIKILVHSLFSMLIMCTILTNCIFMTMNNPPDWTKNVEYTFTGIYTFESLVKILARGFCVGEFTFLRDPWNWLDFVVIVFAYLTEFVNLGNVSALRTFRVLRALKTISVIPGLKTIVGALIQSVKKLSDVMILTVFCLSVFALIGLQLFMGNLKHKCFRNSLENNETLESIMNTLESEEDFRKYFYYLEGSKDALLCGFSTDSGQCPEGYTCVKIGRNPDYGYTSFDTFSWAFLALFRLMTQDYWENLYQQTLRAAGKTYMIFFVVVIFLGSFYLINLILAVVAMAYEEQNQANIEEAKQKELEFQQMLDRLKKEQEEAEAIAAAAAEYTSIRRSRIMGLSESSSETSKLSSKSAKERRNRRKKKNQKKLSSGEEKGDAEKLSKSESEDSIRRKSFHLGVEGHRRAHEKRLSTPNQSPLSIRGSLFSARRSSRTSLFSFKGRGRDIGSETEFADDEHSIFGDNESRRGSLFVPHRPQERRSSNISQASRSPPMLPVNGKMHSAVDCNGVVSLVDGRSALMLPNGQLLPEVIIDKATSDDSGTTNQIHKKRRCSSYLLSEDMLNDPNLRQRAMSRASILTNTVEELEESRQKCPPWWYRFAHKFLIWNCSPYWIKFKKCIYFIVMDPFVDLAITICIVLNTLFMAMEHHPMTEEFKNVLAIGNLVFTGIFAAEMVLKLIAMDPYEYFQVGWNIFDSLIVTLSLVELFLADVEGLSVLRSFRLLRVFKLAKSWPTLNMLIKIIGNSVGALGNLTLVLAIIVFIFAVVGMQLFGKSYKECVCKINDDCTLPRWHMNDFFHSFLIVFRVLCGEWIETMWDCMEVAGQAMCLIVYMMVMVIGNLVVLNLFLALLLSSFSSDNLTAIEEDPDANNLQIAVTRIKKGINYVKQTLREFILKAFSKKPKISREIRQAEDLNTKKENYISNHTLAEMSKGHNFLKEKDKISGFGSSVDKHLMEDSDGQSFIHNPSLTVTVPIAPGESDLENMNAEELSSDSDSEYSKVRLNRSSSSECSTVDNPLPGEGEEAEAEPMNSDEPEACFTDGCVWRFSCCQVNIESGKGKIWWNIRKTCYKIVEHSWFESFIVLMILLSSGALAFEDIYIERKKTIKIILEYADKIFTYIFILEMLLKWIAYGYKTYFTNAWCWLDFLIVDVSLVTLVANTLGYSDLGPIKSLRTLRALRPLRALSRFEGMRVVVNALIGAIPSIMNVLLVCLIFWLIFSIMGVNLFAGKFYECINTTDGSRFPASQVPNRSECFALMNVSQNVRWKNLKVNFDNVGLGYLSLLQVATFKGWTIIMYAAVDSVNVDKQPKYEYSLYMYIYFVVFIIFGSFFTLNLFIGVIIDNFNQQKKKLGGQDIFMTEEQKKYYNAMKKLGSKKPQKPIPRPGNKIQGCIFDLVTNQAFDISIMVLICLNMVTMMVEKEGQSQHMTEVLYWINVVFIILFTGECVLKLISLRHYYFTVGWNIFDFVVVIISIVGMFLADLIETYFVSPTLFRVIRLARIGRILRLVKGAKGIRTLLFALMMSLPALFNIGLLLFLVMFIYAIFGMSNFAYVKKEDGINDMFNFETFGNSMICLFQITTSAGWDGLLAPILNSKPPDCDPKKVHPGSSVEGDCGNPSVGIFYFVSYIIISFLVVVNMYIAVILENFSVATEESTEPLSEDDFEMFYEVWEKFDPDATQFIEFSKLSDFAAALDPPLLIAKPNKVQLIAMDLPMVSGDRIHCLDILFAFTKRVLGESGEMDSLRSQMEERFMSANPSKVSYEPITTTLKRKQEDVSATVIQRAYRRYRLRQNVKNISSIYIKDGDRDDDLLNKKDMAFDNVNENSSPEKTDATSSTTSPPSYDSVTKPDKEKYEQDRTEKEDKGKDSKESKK
Experimental: Ionworks Barracuda Automated Patch Clamp Assay (Same Protocol for Both Human and Mouse)
Human Nav1.7 currents were recorded in population patch-clamp mode with the IWB automated electrophysiology system (Molecular Devices, LLC, Sunnyvale, Calif.). Spiking HEK cells (without Kir2.1 transfection) were cultured and prepared for recordings as previously described for IonWorks Quattro testing^1. The external solution consisted of the following (in mM): NaCl 140, KCl 5, CaCl2 2, MgCl2 1, HEPES 10, and glucose 11, pH 7.4, with N-methyl-D-glucamine at 320 mOsmol. The internal solution consisted of the following (in mM): KCl 70, KF 70, MgCl2 0.25, HEDTA 5, and HEPES 10, pH 7.25, with Nmethyl-D-glucamine, 300 mOsmol. From a holding potential of −110 mV, currents were elicited by a train of 26 depolarizations of 150 ms duration to −20 mV at a frequency of 5 Hz. Cells were then clamped to −20 mV for a period of 4 minutes in the presence of a single concentration of test compound. Following this compound incubation period, cells were clamped to −110 mV for three seconds to recover unbound channels and put through the same 26 pulse voltage protocol as above. Peak inward current during the 26th pulse to −20 mV in the presence of compound was divided by the peak inward current evoked by the 26th pulse to −20 mV in the absence of compound to determine percent inhibition. Concentration-response curves of percent inhibition as a function of concentration were generated to calculate IC50 values as described in Kornecook, T. J.; Yin, R.; Altmann, S.; et al. Pharmacologic Characterization of AMG8379, a Potent and Selective Small Molecule Sulfonamide Antagonist of the Voltage-Gated Sodium Channel NaV1. 7. J. Pharmacol. Exp. Ther. 2017, 362, 146-160.

CYP3A4 = assay: Human CYP 3A4 induction assay (mRNA, cryopreserved human hepatocytes); assay type: in vitro ADME; settings: 72 hours, percent of control (POC); for CYP3A4 mRNA Induct Hu 2 uM POC: 2 uM test compound; for CYP3A4 mRNA Induct Hu 10 uM POC: 10 uM test compound
Experimental: Human CYP 3A4 Induction Assay
Cryopreserved human hepatocytes were seeded in 96-well collagen coated plates at 70,000 cells per well in hepatocyte plating media (HPM, final concentrations: lx Dulbecco's Modified Eagle's Medium, 0.1 μM dexamethasone, 10% fetal bovine serum, lx ITS, 1×PSG) followed by incubation at 37° C. under 5% CO2 and 90% relative humidity for 2 days to allow hepatocytes to form a confluent layer. On Day 3, hepatocytes were treated with either test compound or rifampin (20 μM, positive control for CYP3A induction) prepared in hepatocyte incubation media ((HIM, final concentrations: 1× William's Medium E, 0.1 μM dexamethasone, 1×ITS, 1×PSG). Treatment was performed for 72 hours with either 2 concentrations (2 μM or 10 μM) or a range of concentrations (0.001 μM to 100 μM) of the test compound to obtain full dose-response curve. Fresh media containing the relevant concentrations of the test compound was replaced every day until the samples were processed. After 72 hours of incubation, samples were processed for mRNA analysis using bDNA technology using manufacturer's instructions (Affymetrix, Fremont, Calif.). Cell viability was tested at the end of the experiment using MTT assay kit (Roche Diagnostics, Basel, Switzerland). Data was analyzed and presented as percent of control (POC) and Emax and EC50 obtained when appropriate according to guidance from Center for Drug Evaluation and Research (CDER), 2006, Guidance for Industry, Drug Interaction Studies—Study Design, Data Analysis, and Implications for Dosing and Labeling.
Cryopreserved human hepatocytes were seeded in 96-well collagen coated plates at 70,000 cells per well in hepatocyte plating media (HPM, final concentrations: lx Dulbecco's Modified Eagle's Medium, 0.1 μM dexamethasone, 10% fetal bovine serum, lx ITS, 1×PSG) followed by incubation at 37° C. under 5% CO2 and 90% relative humidity for 2 days to allow hepatocytes to form a confluent layer. On Day 3, hepatocytes were treated with either test compound or rifampin (20 μM, positive control for CYP3A induction) prepared in hepatocyte incubation media ((HIM, final concentrations: 1× William's Medium E, 0.1 μM dexamethasone, 1×ITS, 1×PSG). Treatment was performed for 72 hours with either 2 concentrations (2 μM or 10 μM) or a range of concentrations (0.001 μM to 100 μM) of the test compound to obtain full dose-response curve. Fresh media containing the relevant concentrations of the test compound was replaced every day until the samples were processed. After 72 hours of incubation, samples were processed for mRNA analysis using bDNA technology using manufacturer's instructions (Affymetrix, Fremont, Calif.). Cell viability was tested at the end of the experiment using MTT assay kit (Roche Diagnostics, Basel, Switzerland). Data was analyzed and presented as percent of control (POC) and Emax and EC50 obtained when appropriate, as described in Halladay, J. et al, 2012, An “all-inclusive” 96-well cytochrome P450 induction method: Measuring enzyme activity, mRNA levels, protein levels, and cytotoxicity from one well using cryopreserved human hepatocytes, Pharmacological and Toxicological Methods, 66:270-275.

Compound	IC50 (Human Nav1.7) [nM]	CYP3A4 mRNA Induct Hu 2 uM POC (CYP3A4) [%]	CYP3A4 mRNA Induct Hu 10 uM POC (CYP3A4) [%]
COc1cc(O[C@@H](C)C(F)(F)F)c(F)cc1-n1c(=O)ccc2cc(S(=O)(=O)Nc3ccon3)c(F)cc21 (atropisomer, axis not shown; (P)) [Example 17, (P)-(S)-7-fluoro-1-(5-fluoro-2-methoxy-4-((1,1,1-trifluoropropan-2-yl)oxy)phenyl)-N-(isoxazol-3-yl)-2-oxo-1,2-dihydroquinoline-6-sulfonamide]	27	16.3	39.8
COc1cc(O[C@@H](C)C(F)(F)F)c(F)cc1-n1c(=O)ccc2cc(S(=O)(=O)Nc3ccon3)ccc21 (atropisomer, axis not shown; (P)) [Example 18, (P)-(S)-1-(5-fluoro-2-methoxy-4-((1,1,1-trifluoropropan-2-yl)oxy)phenyl)-N-(isoxazol-3-yl)-2-oxo-1,2-dihydroquinoline-6-sulfonamide]	27	2.6	9.5
COc1cc(SC(F)(F)F)c(F)cc1-n1c(=O)ccc2cc(S(=O)(=O)Nc3ncccn3)c(F)cc21 (atropisomer, axis not shown; (P)) [Example 19, (P)-7-fluoro-1-(5-fluoro-2-methoxy-4-((trifluoromethyl)thio)phenyl)-2-oxo-N-(pyrimidin-2-yl)-1,2-dihydroquinoline-6-sulfonamide]	29	17.4	49.2
COc1cc(OCCC(F)(F)F)c(F)cc1-n1c(=O)ccc2cc(S(=O)(=O)Nc3ccon3)ccc21 (atropisomer, axis not shown; (P)) [Example 20, (P)-1-(5-fluoro-2-methoxy-4-(3,3,3-trifluoropropoxy)phenyl)-N-(isoxazol-3-yl)-2-oxo-1,2-dihydroquinoline-6-sulfonamide]	30	10.8	29.6
COc1cc(O[C@H](C)C(F)(F)F)c(F)cc1-n1c(=O)ccc2cc(S(=O)(=O)Nc3ccon3)ccc21 (atropisomer, axis not shown; (P)) [Example 21, (P)-(R)-1-(5-fluoro-2-methoxy-4-((1,1,1-trifluoropropan-2-yl)oxy)phenyl)-N-(isoxazol-3-yl)-2-oxo-1,2-dihydroquinoline-6-sulfonamide]	32	0.4	1.8
COc1cc(OCCC(F)(F)F)c(F)cc1-n1c(=O)ccc2cc(S(=O)(=O)Nc3ccon3)c(F)cc21 (atropisomer, axis not shown; (P)) [Example 22, (P)-7-fluoro-1-(5-fluoro-2-methoxy-4-(3,3,3-trifluoropropoxy)phenyl)-N-(isoxazol-3-yl)-2-oxo-1,2-dihydroquinoline-6-sulfonamide]	34	14.8	41.5
COc1cc(SC(F)(F)F)ccc1-n1c(=O)ccc2cc(S(=O)(=O)Nc3ccon3)ccc21 (atropisomer, axis not shown; (P)) [Example 23]	39	7.4	25.1
COc1cc(O[C@@H](C)C(F)(F)F)c(F)cc1-n1c(=O)ccc2cc(S(=O)(=O)Nc3ncccn3)ccc21 (atropisomer, axis not shown; (P)) [Example 24, (P)-(S)-1-(5-fluoro-2-methoxy-4-((1,1,1-trifluoropropan-2-yl)oxy)phenyl)-2-oxo-N-(pyrimidin-2-yl)-1,2-dihydroquinoline-6-sulfonamide]	68	0.8	1.2
COc1cc(OCC(F)(F)F)c(F)cc1-n1c(=O)c(F)cc2cc(S(=O)(=O)Nc3ccon3)ccc21 (atropisomer, axis not shown; (P)) [Example 25, (P)-3-fluoro-1-(5-fluoro-2-methoxy-4-(2,2,2-trifluoroethoxy)phenyl)-N-(isoxazol-3-yl)-2-oxo-1,2-dihydroquinoline-6-sulfonamide]	102	11.5	38.0
COc1nc(SC(F)(F)F)c(F)cc1-n1c(=O)ccc2cc(S(=O)(=O)Nc3ccon3)ccc21 (atropisomer, axis not shown; (P)) [Example 26, (P)-1-(5-fluoro-2-methoxy-6-((trifluoromethyl)thio)pyridin-3-yl)-N-(isoxazol-3-yl)-2-oxo-1,2-dihydroquinoline-6-sulfonamide]	185	5.7	25.6
COc1cc(SC(F)(F)F)c(F)cc1-n1c(=O)cc(F)c2cc(S(=O)(=O)Nc3ccon3)ccc21 [Example 11, P-4-fluoro-1-(5-fluoro-2-methoxy-4-((trifluoromethyl)thio)phenyl)-N-(isoxazol-3-yl)-2-oxo-1,2-dihydroquinoline-6-sulfonamide]	10	7.3	48.1
COc1cc(SC(F)(F)F)c(C)cc1-n1c(=O)ccc2cc(S(=O)(=O)Nc3ccon3)ccc21 [Example 12, P-N-(isoxazol-3-yl)-1-(2-methoxy-5-methyl-4-((trifluoromethyl)thio)phenyl)-2-oxo-1,2-dihydroquinoline-6-sulfonamide]	14	20.2	61.2
COc1cc(O[C@H](C)C(F)(F)F)c(F)cc1-n1c(=O)ccc2cc(S(=O)(=O)Nc3ncccn3)ccc21 [Example 13, P-(R)-1-(5-fluoro-2-methoxy-4-((1,1,1-trifluoropropan-2-yl)oxy)phenyl)-2-oxo-N-(pyrimidin-2-yl)-1,2-dihydroquinoline-6-sulfonamide]	21	7.0	35.3
COc1cc(OCC(F)(F)F)c(F)cc1-n1c(=O)ccc2cc(S(=O)(=O)Nc3ccon3)c(F)cc21 [Example 14]	23	3.6	21.4
